Values quoted from earlier work as cited in US11576377B2, “Antimicrobial mixtures of an essential oil derived bactericide and an essential oil derived fungicide which extend the shelf-life of perishable agricultural commodities” (priority 2013, dated 2023).

Experiments:
peaches = settings: Mari et al. 2008
cherry stem = settings: Tsao and Zhou, 2000

Structure (SMILES) | Phytotoxic effect on peaches (peaches) | Phytotoxic effect on cherry stem (cherry stem)
C=CCN=C=S [allyl isothiocyanate] | causes discoloration of peaches | –
Cc1ccc(C(C)C)c(O)c1 [thymol] | – | causes browning of cherry stem
